Article PMC6389950, “Small Peptide Ligands for Targeting EGFR in Triple Negative Breast Cancer Cells” (Scientific Reports, 2019)
Several values for one entry are separate records, joined by “and”; a condition that tells them apart may be missing. Identical values can stand only once.

Assays:
Assay type in all cases: cell-based
MCF-10A = experiment: Peptide array-whole cell binding assay; conditions: non-tumorigenic cells; peptide conjugated to cellulose membrane (amino-PEG500); cells 75 × 10^3 cells/mL, 37 °C, 4 h; CyQUANT fluorescence relative to peptide 1; spots in duplicate
Excerpt: (§1) Peptide array on the cellulose membrane was used to evaluate the binding of each peptide to different cell lines. The amino functionalized cellulose membrane provided by Intavis is acid hardened providing high stability at pH range from 1–14, permitting its use in acidic or basic conditions while maintaining membrane integrity. The PEG linker on membrane surface functions as a hydrophilic spacer between the peptide and the solid surface (membrane) reducing background signal. Cell lines were carefully selected for screening peptides as our goal here is to screen peptides with high binding/uptake by the TNBC cells. […] EGFR is overexpressed by a number of TNBC cells such as MDA-MB-468 (obtained from primary tumor source) and MDA-MB-231 (from metastasis cancer tissue)[13],[14]. While other TNBC cells like MDA-MB-436 (obtained from metastasis cancer tissue) are known to express low levels of EGFR. Non-tumorigenic epithelial MCF10A and MCF12A cells derived from the breast tissue also express low levels of EGFR[14],[34]. We selected two TNBC cell lines with relatively high expression of EGFR expression (MDA-MB-468/231) and a TNBC cell line with low level of EGFR expression (MDA-MB-436) for the peptide array screening experiments. In addition, non- tumorigenic cell line, MCF-10A was used for comparison. These four cell lines were allowed to bind the membrane by seeding the cells on the membrane and the bound cells were labeled with a fluorescent dye CyQUANT.
(§2) For the binding assay, the peptide array was incubated with the cells in sequential steps as described previously. Briefly peptide array membrane was dipped in ethanol for 30 s to remove any precipitation on it, followed by dipping in sterile PBS (pH 7.4) for another 30 min. The cells (75 × 10^3 cells/mL) were seeded directly on the membrane in a sterile plate and incubated at 37 °C for 4 h. The unbound cells were washed out with sterile PBS (pH 7.4). Thereafter the membrane was placed in a sealed bag and transferred to −80 °C freezer for 2 h. Subsequently it was defrosted at room temperature and treated with CyQUANT solution. The CyQUANT concentration was optimized based on the manufacturer’s protocol and preliminary experiments. Membrane was incubated at 37 °C for 30 min with the dye. After washing with sterile PBS and air drying using blow dryer, the membrane was scanned using Bio-rad chemidoc imager with image lab software. The settings were adjusted based on the excitation (465 nm) and emission (535 nm) wavelengths of CyQUANT dye. Epi Blue was selected for the light source (455–485 nm) and filter number 4 (blue filter, 518–546 nm) was employed. The fluorescence intensity of cancer cells read using chemidoc imager was normalized using the non-cancer cell fluorescence intensity. Eventually relative fluorescence was assessed to select peptides with high affinity to cancer cells and low or minimal binding to normal cells.

MDA-MB-231 [1] = experiment: Peptide array-whole cell binding assay; conditions: peptide conjugated to cellulose membrane (amino-PEG500), no free C-terminus; cells 75 × 10^3 cells/mL, 37 °C, 4 h; CyQUANT fluorescence relative to peptide 1; spots in duplicate
Excerpt: as §1, §2

MDA-MB-436 [2] = experiment: Peptide array-whole cell binding assay; conditions: peptide conjugated to cellulose membrane (amino-PEG500), no free C-terminus; cells 75 × 10^3 cells/mL, 37 °C, 4 h; CyQUANT fluorescence relative to peptide 1; spots in duplicate
Excerpt: as §1, §2

MDA-MB-468 [3] = experiment: Peptide array-whole cell binding assay; conditions: peptide conjugated to cellulose membrane (amino-PEG500), no free C-terminus; cells 75 × 10^3 cells/mL, 37 °C, 4 h; CyQUANT fluorescence relative to peptide 1; spots in duplicate
Excerpt: as §1, §2

MDA-MB-231 [4] = experiment: In vitro cellular uptake of FITC-labeled peptides by FACS; conditions: soluble FITC-β-alanine-labeled peptide 1 µM, 30 min, 37 °C, FBS free media, 10^5 or 10^6 cells/well, MFI of FITC positive cells, three independent experiments ± SD
Excerpt: (§3) Flow cytometry was employed to determine the cellular uptake of selected six peptides (1, 4, 22, 23, 26, and 27). As opposed to the membrane bound (conjugated) peptide in library screening, the peptides used here were soluble (or free) FITC-labeled peptides. Peptides were labeled with FITC in the N-terminal and a β-alanine residue was used as a spacer between the FITC and the peptide sequence. The same three TNBC cells lines (MDA-MB-468, MDA-MB-231 and MDA-MB-436) used for peptide array screening were used here as well. Peptides 1 and 4 were used as controls. […] Peptide 4 was included in this experiment to compare the uptake of this keratin 1 binding peptide with the EGFR binding peptides. Peptides 22, 23, 26, and 27 were identified as the best EGFR binding peptides from the library screening.
(§4) Fluorescence-activated cell-sorting (FACS) analysis was used to check the uptake of the FITC-peptides. The stock solution for the FITC-peptides (100 μM) was prepared by dissolving the peptides in sterile water/10% DMSO. MDA-MB-231, MDA-MB-468 and MDA-MB-436 cells were seeded in 6-well plates with 10^6/10^5 cells/well containing 3 mL media and the plates were incubated at 37 °C overnight. The following day, the media was replaced with fresh FBS free media (1 mL) containing FITC-labeled peptide (1 µM), and further incubated at 37 °C for 30 min. Thereafter the media was removed and the cells were washed with cold PBS to remove any remaining peptide. Adequate trypsin was added to each well followed by 3–5 min incubation at 37 °C. Trypsin was immediately neutralized by adding media and the cell suspension was transferred into centrifuge tubes. The cells were separated and washed twice with FACS sheath fluid. The control cells were treated similarly but without peptide. Two wells were assigned for each peptide and each well sample was read twice in FACS machine. The experiment was repeated once. MFI represents the average of all wells for each peptide.

MDA-MB-436 [5] = experiment: as above; conditions: soluble FITC-β-alanine-labeled peptide 1 µM, 30 min, 37 °C, FBS free media, 10^5 or 10^6 cells/well, MFI of FITC positive cells, three independent experiments ± SD
Excerpt: as §3, §4

MDA-MB-468 [6] = experiment: as above; conditions: soluble FITC-β-alanine-labeled peptide 1 µM, 30 min, 37 °C, FBS free media, 10^5 or 10^6 cells/well, MFI of FITC positive cells, three independent experiments ± SD
Excerpt: as §3, §4

Substance | Relative Cell Adhesion MCF-10A (MCF-10A) | Relative Cell Adhesion MDA-MB-231 (MDA-MB-231 [1]) | Relative Cell Adhesion MDA-MB-436 (MDA-MB-436 [2]) | Relative Cell Adhesion MDA-MB-468 (MDA-MB-468 [3]) | Mean Fluorescence Intensity ± SD MDA-MB-231 (MDA-MB-231 [4]) | Mean Fluorescence Intensity ± SD MDA-MB-436 (MDA-MB-436 [5]) | Mean Fluorescence Intensity ± SD MDA-MB-468 (MDA-MB-468 [6])
YHWYGYTPQDVI [Peptide 23] | 1.4 | 2.8 | 1.0 | 1.6 | 1631 ± 110 | 36 ± 14 | 4661 ± 883
Peptide 4: positive control peptide p160, VPWXEPAYQRFL, binds keratin 1 [reference compound] | 1.2 | 1.3 | 1.1 | 1.1 | 4791 ± 354 | 305 ± 58 | 23741 and 23741 ± 3068
YKWYGYTPQNVI [Peptide 24] | 1.0 | 1.4 | 1.0 | 1.1 |  |  | 
YHWYGYTPQNAI [Peptide 16] | 1.2 | 1.4 | 1.0 | 1.1 |  |  | 
YAWYGYTPQNVI [Peptide 7] | 1.0 | 1.1 | 1.0 | 1.1 |  |  | 
WXEAAYQRFL [Peptide 5, positive control, peptide 18 from a previous study, WXEAAYQRFL, reference compound] | 1.7 | 1.7 | 1.8 | 1.3 |  |  | 
AHWYGYTPQNVI [Peptide 6] | 1.1 | 1.3 | 1.0 | 1.2 |  |  | 
YHWYGYTPQN [Peptide 19] | 1.1 | 2.0 | 1.1 | 1.3 |  |  | 
YRWYGYTPQNVI [Peptide 25] | 1.2 | 1.9 | 1.0 | 1.4 |  |  | 
YHWAGYTPQNVI [Peptide 9] | 1.0 | 1.4 | 1.2 | 1.3 |  |  | 
YHWYGYTPQKVI [Peptide 27] | 1.0 | 1.8 | 1.0 | 1.2 | 1683 ± 163 | 21 ± 17 | 5248 ± 407
YHWYGYTPKNVI [Peptide 26] | 0.8 | 1.6 | 1.0 | 1.3 | 1877 ± 67 | 16 ± 18 | 6457 ± 557
YHWYGYTAQNVI [Peptide 13] | 1.1 | 1.5 | 1.1 | 1.3 |  |  | 
YHWYAYTPQNVI [Peptide 10] | 1.1 | 1.5 | 1.2 | 1.3 |  |  | 
YHWFGYTPQNVI [Peptide 29] | 1.1 | 1.7 | 1.1 | 1.2 |  |  | 
YHWYGYTPQAVI [Peptide 15] | 1.1 | 1.6 | 0.9 | 1.2 |  |  | 
YHWYGYAPQNVI [Peptide 12] | 1.1 | 1.3 | 1.0 | 1.0 |  |  | 
FHWYGYTPQNVI [Peptide 28] | 1.2 | 1.5 | 0.8 | 1.2 |  |  | 
Peptide 2: scrambled negative control sequence WQTNYIHPYVYG | 1.0 | 1.2 | 1.1 | 1.1 |  |  | 
WYGYTPQNVI [Peptide 21] | 1.2 | 1.9 | 1.0 | 1.4 |  |  | 
YHWYGYTPANVI [Peptide 14] | 1.2 | 1.7 | 1.2 | 1.4 |  |  | 
HWYGYTPQNVI [Peptide 20] | 1.2 | 1.5 | 1.0 | 1.2 |  |  | 
YHAYGYTPQNVI [Peptide 8] | 0.9 | 1.0 | 0.9 | 0.8 |  |  | 
YHWYGYTPQNV [Peptide 18] | 1.2 | 1.9 | 1.3 | 1.4 |  |  | 
YGPWYNHYITQV [Peptide 3] | 1.0 | 1.1 | 1.1 | 1.0 |  |  | 
YHWYGATPQNVI [Peptide 11] | 1.0 | 1.3 | 1.0 | 1.2 |  |  | 
YHWYGYTPQNVA [Peptide 17] | 1.2 | 1.6 | 1.2 | 1.4 |  |  | 
YHWYGFTPQNVI [Peptide 30] | 1.0 | 1.5 | 0.9 | 1.3 |  |  | 
